Target: Elongin-B/Elongin-C/von Hippel-Lindau disease tumor suppressor (Homo sapiens, UniProt P40337+Q15370+Q15369)
Assay: Displacement of FAM-DEALAHyp-YIPD from 6xHis-tagged VHL (1 to 213)/elongins-B/elonginC (unknown origin) expressed in Escherichia coli BL21 after 1 min by fluorescence polarization assay

Sequence of Elongin-B/Elongin-C/von Hippel-Lindau disease tumor suppressor (P40337 whole entry, looked up): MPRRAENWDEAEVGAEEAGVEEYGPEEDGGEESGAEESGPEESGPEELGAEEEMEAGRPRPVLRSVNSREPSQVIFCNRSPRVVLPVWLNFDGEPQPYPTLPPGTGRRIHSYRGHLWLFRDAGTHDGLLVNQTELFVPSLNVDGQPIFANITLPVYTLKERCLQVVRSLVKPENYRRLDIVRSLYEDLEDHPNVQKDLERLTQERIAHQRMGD
Sequence of Elongin-B/Elongin-C/von Hippel-Lindau disease tumor suppressor (Q15369 whole entry, looked up): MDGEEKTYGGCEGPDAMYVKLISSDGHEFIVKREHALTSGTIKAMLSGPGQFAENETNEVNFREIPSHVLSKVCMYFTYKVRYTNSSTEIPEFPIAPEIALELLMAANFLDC
Sequence of Elongin-B/Elongin-C/von Hippel-Lindau disease tumor suppressor (Q15370 whole entry, looked up): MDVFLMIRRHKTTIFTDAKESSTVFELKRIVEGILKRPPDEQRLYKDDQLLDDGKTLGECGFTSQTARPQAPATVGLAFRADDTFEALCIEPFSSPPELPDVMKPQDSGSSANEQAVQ

`Cc1cc(CC(=O)N2C[C@H](O)C[C@H]2C(=O)NCc2cccc(Cl)c2)on1` was tested, and the IC50 was 117 µM.

Reference: BindingDB's records for doi:10.1016/j.bmcl.2014.03.095 (University of Utah, 2014)
